Literature values as cited in patent publication US20250382198A1, “ADSORBENT AND METHOD FOR REMOVING PER- AND/OR POLYFLUOROALKYL SUBSTANCES (PFAS) IN WATER MATRICES” (University of Central Florida Research Foundation, Inc., priority 2024, published 2025).

| Structure (SMILES) | Log D | pKa |
| --- | --- | --- |
| O=C(O)C(F)(OC(F)(F)C(F)(F)C(F)(F)F)C(F)(F)F (centres unmarked) [GenX, hexafluoropropylene oxide dimer acid] | 0.47 | 2.84 |
| O=C(O)C(F)(F)C(F)(F)C(F)(F)F [PFBA, Perfluorobutanoic acid] | −1.22 |  |
| O=S(=O)(O)C(F)(F)C(F)(F)C(F)(F)C(F)(F)C(F)(F)C(F)(F)C(F)(F)C(F)(F)F [PFOS, Perfluorooctanesulfonic acid] | 3.05 |  |
| O=C(O)C(F)(F)C(F)(F)C(F)(F)C(F)(F)C(F)(F)C(F)(F)C(F)(F)F [PFOA, Perfluorooctanoic acid] | 1.58 |  |
